Measurements published in patent US20250188110A1, “SPECIFIC SMALL MOLECULE INHIBITORS THAT BLOCK KMT9 METHYLTRANSFERASE ACTIVITY AND FUNCTION” (ALBERT-LUDWIGS-UNIVERSITÄT FREIBURG, priority 2021, published 2025).
pIC50, pKd: −log10 of the molar value. Like-named read-outs stand apart in the source and are kept apart here.

Columns and labels:
KMT9 [1] = target: T1, KMT9 (Homo sapiens, UniProt Q9Y5N5); experiment: KMT9 thermal shift assay (SyproOrange); assay type: binding
T1 sequence (Q9Y5N5 1-214): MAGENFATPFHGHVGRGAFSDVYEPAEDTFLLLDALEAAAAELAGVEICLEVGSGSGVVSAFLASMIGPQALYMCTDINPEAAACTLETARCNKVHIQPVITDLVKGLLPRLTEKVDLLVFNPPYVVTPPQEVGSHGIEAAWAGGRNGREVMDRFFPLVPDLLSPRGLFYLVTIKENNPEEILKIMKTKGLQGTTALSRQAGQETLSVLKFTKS
T1 sequence (Q9UI30 1-120 isoform Q9UI30-2 partner): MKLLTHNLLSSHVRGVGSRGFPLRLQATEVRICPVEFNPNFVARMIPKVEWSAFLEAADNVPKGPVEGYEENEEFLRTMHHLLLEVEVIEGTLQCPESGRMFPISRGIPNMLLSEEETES
How it was run: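 ΔTm versus DMSO-only control is reported in bins (>20 K, 15–20 K, 10–15 K, ≤10 K), using Tm from Boltzmann sigmoidal fits of SyproOrange melt curves. KMT9 with compound in pH 8.5 BTP buffer containing MgCl2 and DTT was preincubated at 25° C, then ramped 1° C per 15 s up to 95° C.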

KMT9 [2] = target: T1, KMT9; experiment: KMT9 methyltransferase inhibition assay, MTaseGlo luminescence (from entry 155); assay type: biochemical; details: 100 nM KMT9, 5 μM ETF1, 1 μM SAM
Method: For the compounds from entry 155 on in Table 1, the following procedure was used to determine IC50 values: The assay was carried out in white, opaque 384-well OptiPlates (PerkinElmer). For IC50 determination, a 2.5x substrate mix (final assay concentrations: 5 μM ETF1, 1 μM SAM and 1x MTaseGlo Reagent), a 2.5x KMT9 solution (final assay concentration 100 nM) and a 5x inhibitor stock 1:1 dilution series (concentration according to the desired range; dilution series was prepared in assay buffer containing 10% DMSO to obtain a final DMSO concentration of 2% in the assay) were prepared. 2 μL of 5x inhibitor stock and 4 μL of 2.5x KMT9 were pipetted, the plate was spun down at 700 rpm for 1 min using a Hettich UNIVERSAL 320 centrifuge and incubated at room temperature (around 25° C.) for 15 min. The reaction was initiated by adding 4 μL of 2.5x substrate mix, the plate was spun down as described before and incubated at 30° C. for 2 h. Afterwards, 10 μL of 2× MTaseGlo Detection solution was added, the plate was centrifuged as described above and incubated for 60 min at room temperature. Luminescence was measured using a PerkinElmer EnVision 2102 Multilabel Reader. Calculation of inhibition and data fitting was carried out as for entries 1-154. described above.
For the results of the methyltransferase inhibition assay shown as “Inhibition” in Table 1, “I” represents an IC50 less than 0.1 μM, “II” represents an IC50 equal or higher than 0.1 μM and less than 1 μM, “III” represents an IC50 equal or higher than 1 µM and less than 10 µM and “IV” represents an IC50 equal or higher than 10 µM

KMT9 [3] = target: T1, KMT9; experiment: Microscale thermophoresis (MST) KMT9 binding
How it was run: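 Kd from microscale thermophoresis: compound series against 20 nM His-KMT9 labelled via RED-Tris-NTA, buffer 25 mM HEPES (pH 7.5)/100 mM NaCl/1 mM DTT/0.05% Tween, 40% MST power, 100% LED. Reported as classes: A ≤10 nM, B >10–100 nM, C >100–1000 nM, D >1000 nM.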

[4] = 500 µM compound, 2 μM KMT9, read-out: Thermal shift (ΔTm)
[5] = MTaseGlo procedure (entries from 155), read-out: Inhibition (IC50)
[6] = His-tag labelled KMT9 20 nM, read-out: MST (Kd)
[7] = ΔTm class, 500 uM compound, 2 μM KMT9, read-out: Thermal shift
[8] = IC50 class, MTaseGlo procedure (entries from 155 on), read-out: Inhibition
[9] = His-tag labelled KMT9 20 nM, Kd class, read-out: MST

Row | SMILES | ΔTm at 500 µM (KMT9 [1]; [4]) | pIC50 (KMT9 [2]; [5]) | pKd (KMT9 [3]; [6]) | ΔTm at 500 µM (KMT9 [1]; [7]) | pIC50 (KMT9 [2]; [8]) | pKd (KMT9 [3]; [9]) | further results
1 | Nc1ncnc2c1ccn2[C@@H]1C[C@H]([C@H]2CCCN2)[C@@H](O)[C@H]1O [Compound 398, (1R,2S,3R,5R)-3-(4-amino-7H-pyrrolo[2,3-d]pyrimidin-7-yl)-5-((R)-pyrrolidin-2-yl) cyclopentane-1,2-diol] | ≤ 10 °C | < 5.00 | < 6.00 | – | – | – | –
2 | Nc1ncnc2c1ccn2[C@@H]1C[C@H](c2cccc(O)c2)[C@@H](O)[C@H]1O [Compound 404, (1R,2S,3R,5R)-3-(4-amino-7H-pyrrolo[2,3-d]pyrimidin-7-yl)-5-(3-hydroxyphenyl) cyclopentane-1,2-diol] | – | – | – | ≤ 10 °C | < 5.00 | < 6.00 | –
3 | Nc1ncnc2c1ccn2[C@@H]1C[C@H](c2ccc(O)cc2)[C@@H](O)[C@H]1O [Compound 405, (1R,2S,3R,5R)-3-(4-amino-7H-pyrrolo[2,3-d]pyrimidin-7-yl)-5-(4-hydroxyphenyl) cyclopentane-1,2-diol] | – | – | – | 10 to 15 °C | < 5.00 | < 6.00 | –
4 | CNc1ncnc2c1ccn2[C@@H]1C[C@H](c2ccc(O)cc2)[C@@H](O)[C@H]1O [Compound 406, (1S,2R,3R,5R)-3-(4-hydroxyphenyl)-5-(4-(methylamino)-7H-pyrrolo[2,3-a]pyrimidin-7-yl) cyclopentane-1,2-diol] | ≤ 10 °C | < 5.00 | < 6.00 | – | – | – | –
5 | Nc1ncnc2c1ccn2[C@@H]1C[C@H](c2cccc(Cl)c2)[C@@H](O)[C@H]1O [Compound 407, (1R,2S,3R,5R)-3-(4-amino-7H-pyrrolo[2,3-d]pyrimidin-7-yl)-5-(3-chlorophenyl) cyclopentane-1,2-diol] | ≤ 10 °C | < 5.00 | < 6.00 | – | – | – | –
6 | CC(=O)c1cccc([C@H]2C[C@@H](n3ccc4c(N)ncnc43)[C@H](O)[C@@H]2O)c1 [Compound 408, 1-(3-((1R,2R,3S,4R)-4-(4-amino-7H-pyrrolo[2,3-d]pyrimidin-7-yl)-2,3-dihydroxycyclopentyl)phenyl)ethan-1-one] | ≤ 10 °C | < 5.00 | < 6.00 | – | – | – | –
7 | Nc1cccc([C@H]2C[C@@H](n3ccc4c(N)ncnc43)[C@H](O)[C@@H]2O)c1 [Compound 410, (1R,2S,3R,5R)-3-(4-amino-7H-pyrrolo[2,3-d]pyrimidin-7-yl)-5-(3-aminophenyl) cyclopentane-1,2-diol] | ≤ 10 °C | < 5.00 | < 6.00 | – | – | – | –
8 | CN1CCC([C@H]2C[C@@H](n3cc(-c4ccn(Cc5ccccc5)n4)c4cnc(Cl)nc43)[C@H](O)[C@@H]2O)CC1 [Compound 491, (1R,2S,3R,5R)-3-(5-(1-benzyl-1H-pyrazol-3-yl)-2-chloro-7H-pyrrolo[2,3-d]pyrimidin-7-yl)-5-(1-methylpiperidin-4-yl)cyclopentane-1,2-diol] | – | – | – | 15 to 20 °C | 6.00 to 7.00 | 6.00 to 7.00 | –
9 | CN1CCC([C@H]2C[C@@H](n3cc(-c4ccn(S(=O)(=O)c5ccccc5)n4)c4c(N)nc(Cl)nc43)[C@H](O)[C@@H]2O)CC1 [Compound 492, (1R,2S,3R,5R)-3-(4-Amino-2-chloro-5-(1-(phenylsulfonyl)-1H-pyrazol-3-yl)-7H-pyrrolo[2,3-d]pyrimidin-7-yl)-5-(1-methylpiperidin-4-yl)cyclopentane-1,2-diol] | – | – | – | > 20 °C | 6.00 to 7.00 | ≥ 8.00 | –
10 | CN1CCC([C@H]2C[C@@H](n3cc(-c4ccn(S(=O)(=O)c5ccccc5)n4)c4cnc(Cl)nc43)[C@H](O)[C@@H]2O)CC1 [Compound 495, (1R,2S,3R,5R)-3-(2-Chloro-5-(1-(phenylsulfonyl)-1H-pyrazol-3-yl)-7H-pyrrolo[2,3-d]pyrimidin-7-yl)-5-(1-methylpiperidin-4-yl)cyclopentane-1,2-diol] | – | – | – | 15 to 20 °C | 5.00 to 6.00 | 7.00 to 8.00 | –
11 | O[C@@H]1[C@H](O)[C@@H](C2CCN(CC3CC3)CC2)C[C@H]1n1cc(-c2nc(Cc3ccccc3)cs2)c2cnc(Cl)nc21 [Compound 497, (1R,2S,3R,5R)-3-(5-(4-Benzylthiazol-2-yl)-2-chloro-7H-pyrrolo[2,3-d]pyrimidin-7-yl)-5-(1-(cyclopropylmethyl)piperidin-4-yl)cyclopentane-1,2-diol] | – | – | – | 10 to 15 °C | 5.00 to 6.00 | 7.00 to 8.00 | –
12 | O[C@@H]1[C@H](O)[C@@H](C2CCN(CCc3ccccc3)CC2)C[C@H]1n1cc(-c2nc(Cc3ccccc3)cs2)c2cnc(Cl)nc21 [Compound 498, (1R,2S,3R,5R)-3-(5-(4-Benzylthiazol-2-yl)-2-chloro-7H-pyrrolo[2,3-d]pyrimidin-7-yl)-5-(1-phenethylpiperidin-4-yl)cyclopentane-1,2-diol] | – | – | – | 10 to 15 °C | 5.00 to 6.00 | 7.00 to 8.00 | –
13 | Nc1nc(Cl)nc2c1c(-c1ccn(Cc3ccccc3)n1)cn2[C@@H]1C[C@H](C2CCNCC2)[C@@H](O)[C@H]1O [Compound 501, (1R,2S,3R,5R)-3-(4-Amino-5-(1-benzyl-1H-pyrazol-3-yl)-2-chloro-7H-pyrrolo[2,3-d]pyrimidin-7-yl)-5-(piperidin-4-yl)cyclopentane-1,2-diol] | – | – | – | – | – | – | ΔTm at 500 µM (KMT9 [1]; ΔTm, 500 µM compound, 2 μM KMT9, 5X SO, read-out: Thermal shift): > 20 °C; pIC50 (KMT9 [2]; from entry 155: MTaseGlo assay, read-out: Inhibition): > 7.00; pKd (KMT9 [3]; microscale thermophoresis, His-tag labelled KMT9 (20 nM), read-out: MST): ≥ 8.00

Further lines, with some results ahead:

Row | ΔTm at 500 µM (KMT9 [1]; [4]) | pIC50 (KMT9 [2]; [5]) | pKd (KMT9 [3]; [6]) | ΔTm at 500 µM (KMT9 [1]; [7]) | pIC50 (KMT9 [2]; [8]) | pKd (KMT9 [3]; [9]) | SMILES | further results
14 | ≤ 10 °C | < 5.00 | < 6.00 | – | – | – | Nc1ncnc2c1ccn2[C@@H]1C[C@H]([C@@H]2CCCN2)[C@@H](O)[C@H]1O [Compound 399, (1R,2S,3R,5R)-3-(4-amino-7H-pyrrolo[2,3-a]pyrimidin-7-yl)-5-((S)-pyrrolidin-2-yl) cyclopentane-1,2-diol] | –
15 | – | – | – | ≤ 10 °C | < 5.00 | < 6.00 | Nc1ccc([C@H]2C[C@@H](n3ccc4c(N)ncnc43)[C@H](O)[C@@H]2O)cc1 [Compound 409, (1r,2s,3r,5r)-3-(4-amino-7H-pyrrolo[2,3-d]pyrimidin-7-yl)-5-(4-aminophenyl) cyclopentane-1,2-diol] | –
16 | 15 to 20 °C | 6.00 to 7.00 | ≥ 8.00 | – | – | – | CN1CC=C([C@H]2C[C@@H](n3cc(-c4nccs4)c4c(N)nc(Cl)nc43)[C@H](O)[C@@H]2O)CC1 [Compound 493, (1R,2S,3R,5R)-3-(4-Amino-2-chloro-5-(thiazol-2-yl)-7H-pyrrolo[2,3-d]pyrimidin-7-yl)-5-(1-methyl-1,2,3,6-tetrahydropyridin-4-yl)cyclopentane-1,2-diol] | –
17 | – | – | – | 15 to 20 °C | 5.00 to 6.00 | 7.00 to 8.00 | CN1CCC([C@H]2C[C@@H](n3cc(-c4nc(Cc5ccccc5)cs4)c4cnc(Cl)nc43)[C@H](O)[C@@H]2O)CC1 [Compound 496, (1R,2S,3R,5R)-3-(5-(4-benzylthiazol-2-yl)-2-chloro-7H-pyrrolo[2,3-d]pyrimidin-7-yl)-5-(1-methylpiperidin-4-yl)cyclopentane-1,2-diol] | –
18 | – | – | – | ≤ 10 °C | < 5.00 | < 6.00 | O[C@@H]1[C@H](O)[C@@H](C2CCN(CC(F)(F)F)CC2)C[C@H]1n1cc(-c2nc(Cc3ccccc3)cs2)c2cnc(Cl)nc21 [Compound 499, (1R,2S,3R,5R)-3-(5-(4-Benzylthiazol-2-yl)-2-chloro-7H-pyrrolo[2,3-d]pyrimidin-7-yl)-5-(1-(2,2,2-trifluoroethyl)piperidin-4-yl)cyclopentane-1,2-diol] | –
